Values quoted from earlier work as cited in US6365180B1, “Oral liquid compositions” (priority 1998, dated 2002).

Conditions: enteric coated tablet versus aqueous solution

Q: For `O=C(O)Cc1ccccc1Nc1c(Cl)cccc1Cl` [sodium diclofenac], which oral bioavailability is on record?
A: more orally bioavailable from an enteric coated tablet than from an aqueous solution
